Reference: paper PMC11082890, “Phenazine Cations as Anticancer Theranostics” (Journal of the American Chemical Society, 2024)

Assays:
Assay in all cases: MTT cytotoxicity assay, 48 h
Type in all cases: cell-based
[1] = tested on: A2780 human ovarian cancer cells; conditions: A2780, 48 h treatment, value (S.D.)
Protocol: (§1) First, the cytotoxicity of 1^2+ and 2^2+ toward several cancer cell lines was examined. The viability of cells exposed to their chloride salts was assessed by an MTT (3-(4,5-dimethylthiazol-2-yl)-2,5-diphenyltetrazolium bromide) assay, and the common chemotherapeutic agent cisplatin was employed as a positive control, Figure 3.
(§2) S2. Tissue Culture and Microscopy Methods
(§3) Cell media was purchased sterile from Sigma-Aldrich. A2780 human ovarian cancer cells and A2780CIS human ovarian cisplatin resistant cells were cultured in RPMI-1640 medium. MCF7 human breast cancer cells, T24 human bladder cancer cells and HEK293 human embryonic kidney cells were cultured in DMEM medium. All growth medium was supplemented with 10 % fetal bovine serum (FBS), 2 mM L-Glutamine, 100 IU mL-1 penicillin and 100 μg mL-1 streptomycin and sterile filtered before use. Cell cultures were grown by incubation at 37 ᵒC with 5 % CO2 and were frequently passaged with trypsin when confluency of around 80 % was reached.
(§4) All cells used were at passage numbers below 50.
(§5) S2b. Preparation of Compounds
(§6) Stock solutions of compounds were solubilized in 10 % PBS (Phosphate Buffer Saline) and 90 % media.
(§7) Solutions were then sterile filtered through a 0.22 μm filter prior to use.
(§8) S2c. Cytotoxicity (MTT Assay) and Determination of IC50 Values
(§9) MTT (3-(4,5-Dimethylthiazol2-yl)-2,5-diphenyltetrazolium bromide)) is a yellow tetrazolium salt that is reduced to formazan in metabolically active cells. Therefore, the purple coloured formazan can be dissolved and quantified through absorbance as a measure of cell viability. Cells were seeded in 48 well plates at a density of 5 x 10^4 cells per well and incubated for 24 hours prior to treatment. After 24 hours, compound (10 % PBS:
(§10) 90 % medium) was added over a concentration gradient from 0.1 to 100 μM with each concentration in triplicate. Some wells were treated with a concentration range of cisplatin as a positive control. Cells were incubated with the relevant concentrations of compound for 48 hours, after which the media was removed and replaced with MTT (0.5 mg mL-1 in serum-free medium) for a period of 30-45 minutes. The MTT solution was then carefully removed and the formazan eluted with isopropanol (130 μL per well). 100 μL from each well was transferred into a 96 well plate to enable quantification of cell viability using a plate reader measuring absorbance at 570 nm. An average absorbance was obtained for each concentration and the cell viability was then calculated as a percentage of the untreated negative control wells. A graph of cell viability against concentration was plotted and the IC50 (the concentration at which the cell viability is 50 %) determined by interpolation. The IC50 values are reported as an average of at least 3 independent biological replicates. […]
(§11) All plates were then incubated for another 24 hours following light treatment. Media was then removed from each well and replaced with MTT (0.5 mg mL-1 in serum-free medium) for 30-45 minutes. […]
(§12) The data was then plotted as a graph of cell viability against concentration to determine the IC50 values by interpolation before and after light treatment.

[2] = tested on: MCF7 human breast cancer cells; conditions: MCF7, 48 h treatment, value (S.D.)
Protocol: as §1, §2, §3, §4, §5, §6, §7, §8, §9, §10, §11, §12

[3] = tested on: HEK293 human embryonic kidney cells; conditions: HEK293 noncancerous cells, 48 h treatment, value (S.D.)
Protocol: as §1, §2, §3, §4, §5, §6, §7, §8, §9, §10, §11, §12

[4] = tested on: T24 human bladder cancer cells; conditions: T24, 48 h treatment, value (S.D.)
Protocol: as §1, §2, §3, §4, §5, §6, §7, §8, §9, §10, §11, §12

[5] = tested on: A2780CIS human ovarian cisplatin resistant cells; conditions: 48 h treatment, value (S.D.)
Protocol: as §1, §2, §3, §4, §5, §6, §7, §8, §9, §10, §11, §12

N.N.[Cl][Pt][Cl] [cisplatin]
IC50 [1]: 1.3 µM | IC50 [2]: 26 µM | IC50 [3]: 5 µM | IC50 [4]: 3 µM | IC50 [5]: 19 µM
